The values below come from patent US5073557A, “Novel substituted pyrazine, formulations thereof and use in medicine” (Merck Sharp & Dohme Limited, priority 1989, dated 1991).

The structures appear in SMILES notation.

Usually EC50 stands for the concentration giving half of the maximal effect.

Format in all cases: cell-based
Assay [1] has as its target T1, M1 muscarinic receptor (ganglion) (Rattus norvegicus, UniProt P08482).
T1 construct: agonist activity against muscarinic receptors in the ganglion, heart and ileum; from tissue
T1 sequence (P08482 1-460): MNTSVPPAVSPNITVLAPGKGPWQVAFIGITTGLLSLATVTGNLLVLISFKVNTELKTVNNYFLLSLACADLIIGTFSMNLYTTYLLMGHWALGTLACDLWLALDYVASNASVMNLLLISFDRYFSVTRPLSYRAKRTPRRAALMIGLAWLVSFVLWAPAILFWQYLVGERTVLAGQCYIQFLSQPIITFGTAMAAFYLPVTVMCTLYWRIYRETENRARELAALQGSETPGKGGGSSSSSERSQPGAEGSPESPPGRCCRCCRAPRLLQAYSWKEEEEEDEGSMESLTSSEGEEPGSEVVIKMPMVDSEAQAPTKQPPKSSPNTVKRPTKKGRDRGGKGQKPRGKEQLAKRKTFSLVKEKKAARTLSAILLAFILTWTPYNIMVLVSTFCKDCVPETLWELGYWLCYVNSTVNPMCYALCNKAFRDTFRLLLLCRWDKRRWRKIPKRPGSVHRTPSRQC
Description: Agonist activity against muscarinic receptors in the ganglion (M1 agonist activity). Particulars: for EC50: ganglion. From the text:
(§1) European Patent Application No. 89200147 (Publication No. 327155) discloses a class of pyrazines, pyridazines or pyrimidines, and salts and prodrugs thereof, substituted on one of the ring carbon atoms thereof with a non-aromatic azacyclic or azabicyclic ring system; and independently substituted on each of the other ring carbon atoms with a substituent of low lipophilicity or a hydrocarbon substituent, which compounds stimulate cholinergic transmission.
(§2) The following results are obtained in pharmacological assays to allow agonist activity against muscarinic receptors in the ganglion, heart and ileum.

Assay [2] deals with T2, M3 muscarinic receptor (ileum) (Cavia porcellus, UniProt H0W1Z3).
T2 construct: agonist activity against muscarinic receptors in the ganglion, heart and ileum; from tissue; host or cells: ileum
T2 sequence (H0W1Z3 1-590): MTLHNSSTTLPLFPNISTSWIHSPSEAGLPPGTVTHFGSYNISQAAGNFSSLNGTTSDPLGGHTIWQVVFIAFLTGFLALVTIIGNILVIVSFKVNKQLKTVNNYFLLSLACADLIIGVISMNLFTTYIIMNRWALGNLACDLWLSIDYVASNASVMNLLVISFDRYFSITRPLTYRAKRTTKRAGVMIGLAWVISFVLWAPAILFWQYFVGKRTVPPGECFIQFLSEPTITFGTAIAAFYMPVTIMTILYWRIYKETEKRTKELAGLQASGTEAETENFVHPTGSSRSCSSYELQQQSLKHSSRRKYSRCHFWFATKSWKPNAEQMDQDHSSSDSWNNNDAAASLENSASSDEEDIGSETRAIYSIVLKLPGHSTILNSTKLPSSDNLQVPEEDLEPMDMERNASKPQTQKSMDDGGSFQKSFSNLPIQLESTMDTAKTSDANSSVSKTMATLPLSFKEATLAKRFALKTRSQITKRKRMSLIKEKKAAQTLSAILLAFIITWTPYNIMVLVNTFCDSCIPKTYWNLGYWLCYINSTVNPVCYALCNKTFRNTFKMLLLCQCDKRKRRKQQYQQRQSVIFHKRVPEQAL
Description: Agonist activity against muscarinic receptors in the ileum (M3 agonist activity).
Description: as §1, §2

Assay [3] has as its target T3, M2 muscarinic receptor (heart) (Cavia porcellus, UniProt H0VRN8).
T3 construct: agonist activity against muscarinic receptors in the ganglion, heart and ileum; from tissue
T3 sequence (H0VRN8 1-466): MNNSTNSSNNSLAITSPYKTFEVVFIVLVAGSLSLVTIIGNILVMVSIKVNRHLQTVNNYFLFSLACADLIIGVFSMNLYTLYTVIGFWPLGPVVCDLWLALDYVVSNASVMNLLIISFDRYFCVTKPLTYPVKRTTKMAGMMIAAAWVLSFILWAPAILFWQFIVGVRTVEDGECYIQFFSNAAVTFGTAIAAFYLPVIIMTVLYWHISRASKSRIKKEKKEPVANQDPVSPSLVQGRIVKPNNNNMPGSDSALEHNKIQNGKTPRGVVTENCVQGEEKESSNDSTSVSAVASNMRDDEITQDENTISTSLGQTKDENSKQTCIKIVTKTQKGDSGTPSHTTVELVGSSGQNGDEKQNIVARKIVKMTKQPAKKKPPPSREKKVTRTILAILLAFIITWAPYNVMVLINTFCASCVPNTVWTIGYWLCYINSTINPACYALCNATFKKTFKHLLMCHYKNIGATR
Description: Pharmacological assay on muscarinic receptors in the heart (M2 antagonist activity). The note with it: read-out: Heart (pA2) (converted).
Description: as §1, §2

For `Clc1cncc(C2CN3CCC2CC3)n1` (racemic) [racemate, 3-[2-(6-chloropyrazin)yl]-1-azabicyclo[2.2.2]octane], the EC50 in assay [1] was 0.1 µM; in assay [2] it was 0.03 µM. Moreover, the Kb in assay [3] was 0.0794 µM.

Turning to `Clc1cncc([C@H]2CN3CCC2CC3)n1` [(1), (R)-3-[2-(6-chloropyrazin)yl]-1-azabicyclo[2.2.2]octane], in assay [1] (M1 receptor, versus (S)-enantiomer), the “potency at the M1 receptor relative to the corresponding (S)-enantiomer” value is reported as “four times”. Moreover, the “potency at the M1 receptor relative to the corresponding racemate” value in assay [1] (M1 receptor, versus racemate) is recorded as “twice the potency”. Moreover, the figures for the EC50 in assay [1] and in assay [2] were 0.05 µM and 0.04 µM, respectively. In addition, the Kb in assay [3] is 0.0631 µM.

As for `Clc1cncc([C@@H]2CN3CCC2CC3)n1` [(S) isomer], the values for the EC50 in assay [1] and in assay [2] were 0.2 µM and 0.6 µM, respectively. Also, the Kb in assay [3] was 0.126 µM.
